One test relates to PC-3. Nature of the test: Antiproliferative activity against androgen-independent prostate cancer PC3 cell line by MTS assay. It counts as functional, cell-based. Particulars: Homo sapiens.
The test system of the next test is MDA-MB-231. Nature of the test: Antiproliferative activity against estrogen-independent breast cancer MDA-MB-231 cell line by MTS assay. Type of test: functional, cell-based. Particulars: Homo sapiens.
The test system of another test is MCF7. Nature of the test: Antiproliferative activity against estrogen-dependent breast cancer MCF7 cell line by MTS assay. Type of test: functional, cell-based. Particulars: Homo sapiens.
Another test addresses Tubulin (Sus scrofa, UniProt P02554+P02550). The experiment in a line: Inhibition of porcine brain tubulin polymerization by GTP-induced assembly.

Regarding `O=C1Nc2cc(O)ccc2/C1=C\c1cccc(O)c1`, the IC50 with PC-3 is 19.5 µM; in the test on MDA-MB-231, 4.3 µM; in the test on MCF7, 8.6 µM; against Tubulin it was more than 40 µM.
In the same order, the values of `O=C1Nc2ccccc2/C1=C\c1cccc(O)c1` are more than 50 µM, 16.9 µM, 31.4 µM and more than 40 µM.
Taken in the same sequence, the figures for `COc1ccc2c(c1)NC(=O)/C2=C/c1cc(OC)c(OC)c(OC)c1` were 0.0082 µM, 0.0009 µM, 0.0007 µM and 4.5 µM.
As to `COc1cc([C@@H]2c3cc4c(cc3[C@H](O)[C@H]3COC(=O)[C@H]23)OCO4)cc(OC)c1OC` [PODOFILOX], the concentration for half-maximal inhibition (IC50) in the test on PC-3 amounted to 0.013 µM; in the test on MDA-MB-231, 0.008 µM.
On to `COc1ccc2c(c1)NC(=O)/C2=C/c1ccc(O)cc1`, for which the IC50 in the test with PC-3 is 0.64 µM; in the test with MDA-MB-231 it was 2.6 µM; with MCF7, 0.23 µM; on Tubulin, 18 µM.
In the same order, the values of `O=C1Nc2cc(O)ccc2/C1=C\c1ccc(O)cc1` are 44.7 µM, 9.4 µM, 19.7 µM and more than 40 µM.
For `COc1ccc2c(c1)NC(=O)/C2=C/c1cccc(O)c1`, the IC50 is 0.54 µM with PC-3, 1.4 µM in the test on MDA-MB-231, 0.39 µM in the test with MCF7 and 9.1 µM against Tubulin.
Regarding `O=C1Nc2ccccc2/C1=C\c1ccc(O)cc1`, the IC50 is more than 50 µM in the test on PC-3, 17.5 µM in the test with MDA-MB-231, 25.7 µM in the test with MCF7 and more than 40 µM on Tubulin.

The record behind these values is ChEMBL document CHEMBL1141952, “Conformationally restricted analogs of Combretastatin A-4 derived from SU5416” (Bioorg Med Chem Lett, 2005).
